#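 Interpolation was linear, between the two tested concentrations surrounding the appropriate level; five concentrations were tested over 48 hours in 96-well plates. GI50 = concentration required for 50% inhibition of growth.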 Active and inactive are the calls of the source. Cut-off read from the data, not from the text of the source: active = GI50 up to about 1.1 µM and inactive = higher.
# Legend:
# Experiment in all cases: NCI anticancer screen, dose series, 48 h
# 786-0 = tested on: 786-0
# A549 = tested on: A549
# BT-549 = tested on: BT-549
# CAKI-1 = tested on: CAKI-1
# HCC 2998 = tested on: HCC 2998
# HCT-116 = tested on: HCT-116
# HCT-15 = tested on: HCT-15
# HL-60 = tested on: HL-60
# HT-29 = tested on: HT-29
# LOX IMVI = tested on: LOX IMVI
# M14 = tested on: M14
# MCF7 = tested on: MCF7
# Malme-3M = tested on: Malme-3M
# NCI-H226 = tested on: NCI-H226
# OVCAR-4 = tested on: OVCAR-4
# OVCAR-8 = tested on: OVCAR-8
# SF-295 = tested on: SF-295
# SW-620 = tested on: SW-620
# SK-MEL-2 = tested on: SK-MEL-2
# A498 = tested on: A498
SMILES,GI50 (786-0),GI50 (A549),GI50 (BT-549),GI50 (CAKI-1),GI50 (HCC 2998),GI50 (HCT-116),GI50 (HCT-15) [µM],GI50 (HL-60),GI50 (HT-29),GI50 (LOX IMVI),GI50 (M14),GI50 (MCF7),GI50 (Malme-3M),GI50 (NCI-H226),GI50 (OVCAR-4),GI50 (OVCAR-8),GI50 (SF-295),GI50 (SW-620),GI50 (SK-MEL-2),GI50 (A498)
C=O.NNCCc1n[nH]c(=O)n1N,> 100 µM (inactive),> 100 µM (inactive),> 100 µM (inactive),> 100 µM (inactive),> 100 µM (inactive),> 100 µM (inactive),> 100,> 100 µM (inactive),> 100 µM (inactive),> 100 µM (inactive),> 100 µM (inactive),> 100 µM (inactive),> 100 µM (inactive),> 100 µM (inactive),> 100 µM (inactive),> 100 µM (inactive),> 100 µM (inactive),> 100 µM (inactive),–,–
FC1=C2CCCCCC2SC1(F)F (stereo unspecified),> 100 µM (inactive),> 100 µM (inactive),> 100 µM (inactive),35.6 µM (inactive),> 100 µM (inactive),37.8 µM (inactive),34.4,12.7 µM (inactive),43.6 µM (inactive),15.7 µM (inactive),30.7 µM (inactive),71.9 µM (inactive),21.9 µM (inactive),> 100 µM (inactive),> 100 µM (inactive),70.3 µM (inactive),> 100 µM (inactive),14.8 µM (inactive),> 100 µM (inactive),–
CC(C)(C)OC(=O)N1CCC23CCCC2C(=O)CC=C13 (stereo unspecified),> 100 µM (inactive),> 100 µM (inactive),> 100 µM (inactive),> 100 µM (inactive),> 100 µM (inactive),72.4 µM (inactive),> 100,> 100 µM (inactive),> 100 µM (inactive),> 100 µM (inactive),> 100 µM (inactive),> 100 µM (inactive),> 100 µM (inactive),> 100 µM (inactive),> 100 µM (inactive),> 100 µM (inactive),> 100 µM (inactive),> 100 µM (inactive),> 100 µM (inactive),–
C=CC/N=C(\S)Nc1sc2c(c1C(=O)OCC)CC(C)CC2 (stereo unspecified),33.9 µM (inactive),24.8 µM (inactive),35.6 µM (inactive),36.1 µM (inactive),18.5 µM (inactive),24.8 µM (inactive),31.8,0.849 µM (active),21.5 µM (inactive),32.9 µM (inactive),24 µM (inactive),20.2 µM (inactive),21.3 µM (inactive),21.6 µM (inactive),35.2 µM (inactive),36.7 µM (inactive),21.1 µM (inactive),32.8 µM (inactive),21.2 µM (inactive),–
Cc1ccc(/N=N/N(C)C(=O)C(C)N)cc1 (stereo unspecified),> 100 µM (inactive),–,> 100 µM (inactive),> 100 µM (inactive),> 100 µM (inactive),> 100 µM (inactive),> 100,> 100 µM (inactive),> 100 µM (inactive),> 100 µM (inactive),> 100 µM (inactive),> 100 µM (inactive),> 100 µM (inactive),> 100 µM (inactive),> 100 µM (inactive),> 100 µM (inactive),> 100 µM (inactive),8.53 µM (inactive),> 100 µM (inactive),–
CCCCOC(=O)C(=O)C(CC(C(=O)Cc1ccccc1)c1ccccc1)C(=O)C=C(C)C (stereo unspecified),> 100 µM (inactive),> 100 µM (inactive),> 100 µM (inactive),> 100 µM (inactive),> 100 µM (inactive),> 100 µM (inactive),> 100,50.1 µM (inactive),> 100 µM (inactive),> 100 µM (inactive),> 100 µM (inactive),> 100 µM (inactive),–,> 100 µM (inactive),> 100 µM (inactive),> 100 µM (inactive),> 100 µM (inactive),> 100 µM (inactive),> 100 µM (inactive),–
CC(=O)c1ccc2c(c1)CC1(C2)Cc2cc3c(c(C(=O)O)c2C1)CCC3 (stereo unspecified),> 100 µM (inactive),37.9 µM (inactive),> 100 µM (inactive),> 100 µM (inactive),> 100 µM (inactive),> 100 µM (inactive),> 100,> 100 µM (inactive),> 100 µM (inactive),> 100 µM (inactive),–,> 100 µM (inactive),53.1 µM (inactive),> 100 µM (inactive),78.7 µM (inactive),> 100 µM (inactive),> 100 µM (inactive),> 100 µM (inactive),–,> 100 µM (inactive)
COC(=O)NC1=NNC(=O)c2ccccc2N1,> 100 µM (inactive),> 100 µM (inactive),> 100 µM (inactive),> 100 µM (inactive),> 100 µM (inactive),> 100 µM (inactive),> 100,> 100 µM (inactive),> 100 µM (inactive),> 100 µM (inactive),> 100 µM (inactive),> 100 µM (inactive),–,> 100 µM (inactive),> 100 µM (inactive),> 100 µM (inactive),> 100 µM (inactive),> 100 µM (inactive),> 100 µM (inactive),> 100 µM (inactive)
COc1ccccc1/C=C1/Sc2scc(CC(=O)Nc3ccccc3)[n+]2C1=O,28.6 µM (inactive),31.5 µM (inactive),15.3 µM (inactive),53 µM (inactive),30.8 µM (inactive),24.6 µM (inactive),26.6,15 µM (inactive),42 µM (inactive),39 µM (inactive),28.4 µM (inactive),31.4 µM (inactive),–,20.3 µM (inactive),21 µM (inactive),31.8 µM (inactive),32.9 µM (inactive),35 µM (inactive),19.1 µM (inactive),–
O=C(O)CNC(=O)c1ccc2cc(C(=O)N3CC(CCl)c4ccc([N+](=O)[O-])cc43)[nH]c2c1 (stereo unspecified),> 100 µM (inactive),> 100 µM (inactive),> 100 µM (inactive),> 100 µM (inactive),–,> 100 µM (inactive),> 100,> 100 µM (inactive),> 100 µM (inactive),> 100 µM (inactive),> 100 µM (inactive),> 100 µM (inactive),–,> 100 µM (inactive),> 100 µM (inactive),> 100 µM (inactive),> 100 µM (inactive),> 100 µM (inactive),> 100 µM (inactive),–
Cc1ccc(C(=O)N(C(C)C)C(C)C)cc1/N=N/N(C)C,> 100 µM (inactive),> 100 µM (inactive),> 100 µM (inactive),> 100 µM (inactive),> 100 µM (inactive),> 75.9 µM (inactive),> 82.6,29.7 µM (inactive),74.1 µM (inactive),> 31.6 µM (inactive),> 100 µM (inactive),> 100 µM (inactive),84.7 µM (inactive),> 100 µM (inactive),> 100 µM (inactive),> 100 µM (inactive),> 86.9 µM (inactive),> 92.3 µM (inactive),> 100 µM (inactive),–
CCCC[S+]([O-])CCC(N)C(=O)O (stereo unspecified),> 100 µM (inactive),> 100 µM (inactive),> 100 µM (inactive),> 100 µM (inactive),> 100 µM (inactive),> 100 µM (inactive),> 100,> 100 µM (inactive),> 100 µM (inactive),–,> 100 µM (inactive),> 100 µM (inactive),1.94 µM (inactive),> 100 µM (inactive),> 100 µM (inactive),> 100 µM (inactive),> 100 µM (inactive),> 100 µM (inactive),–,> 100 µM (inactive)
CC(=C(C(N)=O)C(N)=O)C1C=C(c2cccs2)CC(c2ccc(Cl)cc2)=C1O (stereo unspecified),36.7 µM (inactive),88.7 µM (inactive),16.1 µM (inactive),44.3 µM (inactive),34 µM (inactive),8.85 µM (inactive),20.9,9.59 µM (inactive),39.8 µM (inactive),19.8 µM (inactive),42.5 µM (inactive),8.95 µM (inactive),–,73.6 µM (inactive),5.51 µM (inactive),73.6 µM (inactive),82.8 µM (inactive),82.8 µM (inactive),> 100 µM (inactive),21.5 µM (inactive)
COc1ccc(NC(=O)C(=O)C(CC2C(=O)NC(=S)NC2=O)C(=O)c2ccc3ccccc3c2)c([N+](=O)[O-])c1 (stereo unspecified),> 100 µM (inactive),> 100 µM (inactive),> 100 µM (inactive),> 100 µM (inactive),> 100 µM (inactive),> 100 µM (inactive),> 100,> 100 µM (inactive),> 100 µM (inactive),> 100 µM (inactive),> 100 µM (inactive),> 100 µM (inactive),–,> 100 µM (inactive),> 100 µM (inactive),> 100 µM (inactive),> 100 µM (inactive),> 100 µM (inactive),> 100 µM (inactive),> 100 µM (inactive)
CC1(C)C(OC(=O)c2ccccc2)C[C@]23CCC[C@](C)(C[C@@H](O)C12)C3 (stereo partly specified),19.6 µM (inactive),16.3 µM (inactive),15.6 µM (inactive),19.9 µM (inactive),–,13.9 µM (inactive),18.4,31.5 µM (inactive),16.1 µM (inactive),17 µM (inactive),19.9 µM (inactive),16.4 µM (inactive),19.2 µM (inactive),18.8 µM (inactive),23.1 µM (inactive),16.7 µM (inactive),13.9 µM (inactive),13.9 µM (inactive),17.6 µM (inactive),–
